Assay results published in patent publication US7786116B2, “2-amino-quinoline derivatives useful as inhibitors of β-secretase (BACE)” (Janssen Pharmaceutica N.V., priority 2008, dated 2010).
pIC50: −log10 of the molar value.

Biological target: human BACE-1 (Homo sapiens, UniProt P56817)
Assay: in vitro BACE Assay-1 (CEREP, fluorogenic substrate)
Format: biochemical
Conditions: for pIC50: recombinant enzyme, pH 4.5, 60 min at 37° C.; for inhibition at 1 µM / % Inh @ 1 μM: test compound at 1 μM; for inhibition at 10 µM / % Inh @ 10 μM: test compound at 10 μM
Protocol: This assay was run by CEREP (Catalog Ref. 761-B, Referred to SOP No. 1C131; ERMOLIEFF, J., LOY, J. A., KOELSCH, G. and TANG, J., Proteolytic activation of recombinant pro-memapsin 2 (pro-BACE) studied with new fluorogenic substrates, Biochemistry, (2000) Vol. 39, p. 12450).
More specifically the assay, run at 50 μL in a 96 well plate, evaluated the effect of test compound on the activity of the human BACE-1 quantified by measuring the formation of Mca-S-E-V-N-L-NH2 from Mca-S-E-V-N-L-D-A-E-F-R-K(Dnp)-R—R—NH2, using a recombinant enzyme.
The test compound, reference compound or water (control) was added to a buffer containing 0.09 M sodium acetate (pH 4.5) and 0.25 μg BACE-1. Compound interference with the fluorimetric detection method due to autofluorescence was then checked by measurements at the wavelengths defined to evaluate the enzyme activity. Thereafter, the reaction was initiated by adding 7.5 μM of the substrate Mca-S-E-V-N-L-D-A-E-F-R-K(Dnp)-R—R—NH2 and the mixture was incubated for 60 min at 37° C. For control basal measurement, the substrate was omitted from the reaction mixture. Immediately after the incubation, the fluorescence intensity emitted by the reaction product Mca-S-E-V-N-L-NH2 was measured at λex=320 nm and λem=405 nm using a microplate reader (Ultra, Tecan). The standard inhibitory reference compound was OM99-2, which was tested in each experiment at several concentrations to obtain an inhibition curve from which its IC50 value was calculated.
Representative compounds of the present invention were tested in the assay as described above, with results as listed in Table 3, below.

Sequence of human BACE-1 (P56817 46-501): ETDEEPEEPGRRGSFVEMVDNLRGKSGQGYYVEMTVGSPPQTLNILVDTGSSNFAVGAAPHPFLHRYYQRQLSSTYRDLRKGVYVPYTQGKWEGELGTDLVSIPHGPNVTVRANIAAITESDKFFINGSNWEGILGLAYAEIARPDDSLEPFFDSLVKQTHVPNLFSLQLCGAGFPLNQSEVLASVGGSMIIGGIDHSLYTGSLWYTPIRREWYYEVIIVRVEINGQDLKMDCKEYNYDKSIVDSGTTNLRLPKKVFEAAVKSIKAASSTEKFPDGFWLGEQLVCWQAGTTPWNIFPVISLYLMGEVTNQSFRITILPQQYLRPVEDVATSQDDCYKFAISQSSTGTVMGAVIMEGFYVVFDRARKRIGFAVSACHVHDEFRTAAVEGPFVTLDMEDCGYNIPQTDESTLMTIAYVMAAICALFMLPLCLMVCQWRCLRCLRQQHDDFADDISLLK

SMILES | pIC50 | inhibition at 10 µM [%] | % Inh @ 10 μM [%] | other results
Nc1nc2ccc(-c3cccs3)cc2cc1C(CCC(=O)NC12CC3CC(CC(C3)C1)C2)C1CCOCC1 (stereo not drawn) [Compound 21] | 6.16 | – | – | inhibition at 1 µM: 87%
CC(C)(C)OCCNC(=O)CCC(c1cc2cc(-c3ccccc3F)ccc2nc1N)C1CCOCC1 (stereo not drawn) [Compound 15] | 6.27 | 113 | – | –
CC(C)(CO)CNCCCC(c1cc2cc(-c3ccccc3F)ccc2nc1N)C1CCOCC1 (stereo not drawn) [Compound 6] | < 5.30 | 43 | – | –
COc1ccccc1-c1ccc2nc(N)c(C(CCCN(CCC(C)(C)C)c3nccn3C)C3CCOCC3)cc2c1 (stereo not drawn) [Compound 36] | 6.30 | – | – | inhibition at 1 µM: 76%
Cn1ccnc1CN(CCC(C)(C)C)C(=O)CCC(c1cc2cc(-c3cccc(C(F)(F)F)c3)ccc2nc1N)C1CCOCC1 (stereo not drawn) [Compound 54] | – | – | 8 | –
Cn1ccnc1N(CCC(C)(C)C)C(=O)CCC(c1cc2cc(-c3ccccn3)ccc2nc1N)C1CCOCC1 (stereo not drawn) [Compound 27] | 5.74 | 91 | – | –
CC(C)(C)CCN(Cc1ccccn1)C(=O)CCC(c1cc2cc(-c3ccccc3F)ccc2nc1N)C1CCOCC1 (stereo not drawn) [Compound 35] | 6.48 | 116 | – | –
Cn1ccnc1CN(CCC(C)(C)C)C(=O)CCC(c1cc2cc(-c3ccc(F)cc3)ccc2nc1N)C1CCOCC1 (stereo not drawn) [Compound 37] | – | – | 82 | –
CCOc1cc2nc(N)c(C(CCn3cc(C(C)(C)C)nn3)C3CCOCC3)cc2cc1-c1ccccc1F (stereo not drawn) [Compound 22, 3-[3-(4-tert-Butyl-[1,2,3]triazol-1-yl)-1-(tetrahydro-pyran-4-yl)-propyl]-7-ethoxy-6-(2-fluoro-phenyl)-quinolin-2-ylamine] | 6.82 | 65 | – | –
CC(C)(C)CCN(Cc1ccccc1)C(=O)CCC(c1cc2cc(-c3ccccc3F)ccc2nc1N)C1CCOCC1 (stereo not drawn) [Compound 34] | 6.41 | 68 | – | –
CN(CCCC(c1cc2cc(-c3ccccc3F)ccc2nc1N)C1CCOCC1)CC1CC1 (stereo not drawn) [Compound 3] | – | – | 35 | –
CC(C)(C)CCNC(=O)CCC(c1cc2cc(-c3ccccc3F)ccc2nc1N)C1CCOCC1 (stereo not drawn) [Compound 7] | 6.59 | 83 | – | –
CCOc1ccccc1-c1ccc2nc(N)c(C(CCC(=O)N(CCC(C)(C)C)Cc3nccn3C)C3CCOCC3)cc2c1 (stereo not drawn) [Compound 51, 4-[2-Amino-6-(2-ethoxy-phenyl)-quinolin-3-yl]-N-(3,3-dimethyl-butyl)-N-(1-methyl-1H-imidazol-2-ylmethyl)-4-(tetrahydro-pyran-4-yl)-butyramide] | 6.49 | 99 | – | –
CC(C)(C)CCN(CCCC(c1cc2cc(-c3ccccc3F)ccc2nc1N)C1CCOCC1)CCN1CCOCC1 (stereo not drawn) [Compound 43, 3-[4-[(3,3-Dimethyl-butyl)-(2-morpholin-4-yl-ethyl)-amino]-1-(tetrahydro-pyran-4-yl)-butyl]-6-(2-fluoro-phenyl)-quinolin-2-ylamine] | – | 78 | – | –
Cn1ccnc1CN(CCC(C)(C)C)C(=O)CCC(c1cc2cc(-c3ccccc3F)ccc2nc1N)C1CCOCC1 (stereo not drawn) [Compound 39] | 6.46 | – | – | % Inh @ 1 μM: 93%
CC(C)(C)CCN(Cc1cncs1)C(=O)CCC(c1cc2cc(-c3ccccc3F)ccc2nc1N)C1CCOCC1 (stereo not drawn) [Compound 42] | 6.49 | 65 | – | –
Cn1ccnc1CN(CCCC(c1cc2cc(-c3ccccc3F)ccc2nc1N)C1CCOCC1)CCC(C)(C)C (stereo not drawn) [Compound 29] | 5.82 | – | – | % Inh @ 1 μM: 54%
Cn1ccnc1N(CCC(C)(C)C)C(=O)CCC(c1cc2cc(-c3cccc(F)c3)ccc2nc1N)C1CCOCC1 (stereo not drawn) [Compound 38] | 6.33 | 69 | – | –
COc1cc2nc(N)c(C(CCCN(CCN3CCOCC3)C3CCCCC3)C3CCOCC3)cc2cc1-c1ccccc1F (stereo not drawn) [Compound 52] | 5.44 | 55 | – | –
Cn1ccnc1CN(CCC(C)(C)C)C(=O)CCC(c1cc2cc(-c3cccs3)ccc2nc1N)C1CCOCC1 (stereo not drawn) [Compound 31, 4-(2-Amino-6-thiophen-2-yl-quinolin-3-yl)-N-(3,3-dimethyl-butyl)-N-(1-methyl-1H-imidazol-2-ylmethyl)-4-(tetrahydro-pyran-4-yl)-butyramide] | 6.38 | 98 | – | inhibition at 1 µM: 79%
COc1ccccc1-c1ccc2nc(N)c(C(CCC(=O)N(CCC(C)(C)C)Cc3nccn3C)C3CCOCC3)cc2c1 (stereo not drawn) [Compound 45] | 6.28 | – | – | % Inh @ 1 μM: 94%
CC(C)(C)OCCNCCCC(c1cc2cc(-c3ccccc3F)ccc2nc1N)C1CCOCC1 (stereo not drawn) [Compound 10] | 6.08 | 47 | – | –

SMILES | pIC50 | inhibition at 10 µM [%] | % Inh @ 10 μM [%] | other results
CC(C)(C)CCN(CCCC(c1cc2cc(-c3ccccc3F)ccc2nc1N)C1CCOCC1)Cc1ccccn1 (stereo not drawn) [Compound 28] | 6.06 | 74 | – | –
CC(C)(C)CCN(CCN1CCOCC1)C(=O)CCC(c1cc2cc(-c3ccccc3F)ccc2nc1N)C1CCOCC1 (stereo not drawn) [Compound 47, 4-[2-Amino-6-(2-fluoro-phenyl)-quinolin-3-yl]-N-(3,3-dimethyl-butyl)-N-(2-morpholin-4-yl-ethyl)-4-(tetrahydro-pyran-4-yl)-butyramide] | 6.43 | 58 | – | –
CN(CC1CCCCC1)C(=O)CCC(c1cc2cc(-c3ccccc3F)ccc2nc1N)C1CCOCC1 (stereo not drawn) [Compound 18] | – | – | 77 | –
Nc1nc2ccc(-c3ccccc3F)cc2cc1C(CCC(=O)NCC1CCCCC1)C1CCOCC1 (stereo not drawn) [Compound 12] | 6.46 | 74.5 | – | –
COc1ccccc1-c1cc2cc(C(CCn3cc(C(C)(C)C)nn3)C3CCOCC3)c(N)nc2cc1OC (stereo not drawn) [Compound 20] | 6.05 | 92 | – | –
COc1cc2nc(N)c(C(CCC(=O)N(CCN3CCOCC3)C3CCCCC3)C3CCOCC3)cc2cc1-c1ccccc1F (stereo not drawn) [Compound 53] | 5.66 | 55 | – | –
CN(C(=O)CCC(c1cc2cc(-c3ccccc3F)ccc2nc1N)C1CCCCC1)C1CCCCC1 (single isomer, unassigned) [Compound 11] | – | – | – | % Inh @ 1 μM: 28%
Nc1nc2ccc(-c3ccccc3F)cc2cc1C(CCC(=O)N(CCN1CCCC1)C1CCCCC1)C1CCOCC1 (stereo not drawn) [Compound 41] | 6.35 | 65 | – | –
CCOc1ccc(-c2ccc3nc(N)c(C(CCC(=O)N(CCC(C)(C)C)Cc4nccn4C)C4CCOCC4)cc3c2)cc1 (stereo not drawn) [Compound 50] | – | – | 22 | –
COc1cc2nc(N)c(C(CCn3cc(C(C)(C)C)nn3)C3CCOCC3)cc2cc1-c1ccccc1F (stereo not drawn) [Compound 17] | 5.85 | 73 | – | –
Cn1ccnc1CN(CCC(C)(C)C)C(=O)CCC(c1cc2cc(-c3ccccc3OC(F)(F)F)ccc2nc1N)C1CCOCC1 (stereo not drawn) [Compound 56] | – | – | 73 | –
Nc1nc2ccc(-c3ccccc3F)cc2cc1C(CCC(=O)NC12CC3CC(CC(C3)C1)C2)C1CCOCC1 (stereo not drawn) [Compound 23] | 6.24 | – | – | inhibition at 1 µM: 97%
Nc1nc2ccc(-c3ccccc3F)cc2cc1C(CCC(=O)NCC1CC1)C1CCOCC1 (stereo not drawn) [Compound 2] | – | – | 59 | –
CN(CCCC(c1cc2cc(-c3ccccc3F)ccc2nc1N)C1CCOCC1)CC1CCCCC1 (stereo not drawn) [Compound 13] | – | – | 77 | –
Cn1ccnc1CN(CCC(C)(C)C)C(=O)CCC(c1cc2cc(-c3ccccc3C(F)(F)F)ccc2nc1N)C1CCOCC1 (stereo not drawn) [Compound 55] | 5.62 | – | 90 | –
Cn1ccnc1CN(CCC(C)(C)C)C(=O)CCC(c1cc2cc(-c3ccccc3)ccc2nc1N)C1CCOCC1 (stereo not drawn) [Compound 25] | 6.49 | – | 72 | –
Cn1ccnc1CN(CCC(C)(C)C)C(=O)CCC(c1cc2cc(-c3ccc[nH]3)ccc2nc1N)C1CCOCC1 (stereo not drawn) [Compound 24] | 5.85 | – | 93 | –
COc1cc2nc(N)c(C(CCCNCCC(C)(C)C)C3CCOCC3)cc2cc1-c1ccccc1F (stereo not drawn) [Compound 16] | < 6.21 | 88 | – | –
CN(CC1CC1)C(=O)CCC(c1cc2cc(-c3ccccc3F)ccc2nc1N)C1CCOCC1 (stereo not drawn) [Compound 4] | – | – | 71 | –
Cn1ccnc1CN(CCC(C)(C)C)C(=O)CCC(c1cc2cc(-c3cccc4cc[nH]c34)ccc2nc1N)C1CCOCC1 (stereo not drawn) [Compound 49] | – | – | 99 | –
COc1cc2nc(N)c(C(CCC(=O)NCCC(C)(C)C)C3CCOCC3)cc2cc1-c1ccccc1F (stereo not drawn) [Compound 19] | – | – | 14 | –
Nc1nc2ccc(-c3ccccc3F)cc2cc1C(CCC(=O)NCCO)C1CCOCC1 (stereo not drawn) [Compound 1] | – | – | 34 | –
